Results reported in patent US20210069375A1, “Extracellular Matrices, Uses thereof, and Method for Making Extracellular Matrices” (Gemstone Biotherapeutics LLC, priority 2017, published 2021).

Test: reactivity of the drug under the curing conditions of the EMR
Format: physicochemical
Conditions: mixed with dextramate, PEGDA and Irgacure, cured for 10 minutes
Method: Dextramate (24.2 mL of a 23.1 w/w % solution), PEGDA (16.3 mL of a 8.6 w/w % solution), Irgacure (14 mL of a 0.5 w/w % solution), and valsartan (2.82 mL or 1.41 mL of a 24.8 w/w % solution or 2.82 mL of a 1:10 dilution of a 24.8 w/w % solution) are mixed together. The mixture is cured for 10 minutes. After curing, 100 mL of dH2O is added to the cured product to create a swelled gel.

## CCCCC(=O)N(Cc1ccc(-c2ccccc2-c2nnn[nH]2)cc1)[C@H](C(=O)O)C(C)C [valsartan]
  reactivity under the curing conditions: does not exhibit reactivity
